Reference: patent EP1247803A2, “Indolinone compounds suitable for modulation of protein kinases” (Sugen, Inc., priority 1996, dated 1998)

What was measured:
MET = MET biochemical kinase assay; parameters: species or system human; concentration or dose not given beside the values
Procedure, shortened: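 Capture ELISA: anti-rabbit Fc coat, rabbit anti-MET cytoplasmic domain pAb, lysate MET captured, washed. Compound + kinase buffer (ATP, divalent metals). Readout anti-pTyr-HRP/TMB, colorimetric.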

FLK-1 receptor = biological target: T1, FLK-1 receptor (Mus musculus, UniProt P35918); assay: FLK-1 ELISA (kinase activity of the FLK-1 receptor in FLK-1/NIH3T3 cells, VEGF stimulated); type: cell-based
T1 construct: expressed in transfected cells; host or cells: NIH3T3 C7#3
T1 sequence (P35918 20-1345): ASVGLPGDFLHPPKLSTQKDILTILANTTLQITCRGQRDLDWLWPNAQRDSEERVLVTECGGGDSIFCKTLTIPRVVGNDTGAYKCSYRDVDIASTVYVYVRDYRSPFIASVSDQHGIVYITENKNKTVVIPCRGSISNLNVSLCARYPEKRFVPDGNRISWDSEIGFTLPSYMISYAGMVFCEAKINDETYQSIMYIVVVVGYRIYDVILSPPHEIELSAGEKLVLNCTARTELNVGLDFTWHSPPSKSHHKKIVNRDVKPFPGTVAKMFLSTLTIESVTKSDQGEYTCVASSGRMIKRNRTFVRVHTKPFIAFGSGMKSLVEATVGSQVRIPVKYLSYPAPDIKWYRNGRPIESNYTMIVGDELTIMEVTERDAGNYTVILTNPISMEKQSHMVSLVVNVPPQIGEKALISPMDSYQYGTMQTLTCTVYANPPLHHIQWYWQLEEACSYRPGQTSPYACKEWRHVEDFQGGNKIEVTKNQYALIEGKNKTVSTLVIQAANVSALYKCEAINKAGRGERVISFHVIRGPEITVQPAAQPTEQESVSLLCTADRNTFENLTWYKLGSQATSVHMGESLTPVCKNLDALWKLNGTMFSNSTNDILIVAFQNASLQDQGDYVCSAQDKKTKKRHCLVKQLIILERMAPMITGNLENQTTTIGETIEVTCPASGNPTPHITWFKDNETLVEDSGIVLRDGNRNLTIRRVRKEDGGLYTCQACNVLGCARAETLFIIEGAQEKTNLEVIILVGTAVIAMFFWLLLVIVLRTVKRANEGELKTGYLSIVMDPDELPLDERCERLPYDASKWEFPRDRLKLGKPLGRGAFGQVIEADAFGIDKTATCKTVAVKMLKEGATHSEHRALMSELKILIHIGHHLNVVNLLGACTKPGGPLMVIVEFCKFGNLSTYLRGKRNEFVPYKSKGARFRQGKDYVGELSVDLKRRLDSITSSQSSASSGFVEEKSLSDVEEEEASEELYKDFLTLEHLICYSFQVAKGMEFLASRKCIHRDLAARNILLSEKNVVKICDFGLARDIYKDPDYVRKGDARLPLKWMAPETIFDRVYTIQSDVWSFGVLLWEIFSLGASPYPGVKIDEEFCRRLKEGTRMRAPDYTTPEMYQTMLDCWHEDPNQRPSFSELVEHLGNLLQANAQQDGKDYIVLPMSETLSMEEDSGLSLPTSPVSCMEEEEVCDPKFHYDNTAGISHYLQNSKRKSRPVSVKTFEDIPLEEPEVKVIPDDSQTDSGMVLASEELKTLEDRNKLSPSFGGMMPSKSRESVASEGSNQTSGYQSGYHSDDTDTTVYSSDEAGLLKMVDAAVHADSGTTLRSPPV
Procedure, shortened: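 An ELISA using affinity-purified rabbit anti-FLK-1 antiserum on anti-rabbit IgG-coated plates measured VEGF-stimulated FLK-1 kinase activity. NIH3T3 C7#3 cells carrying FLK-1 were serum-starved (0.1% FBS) overnight, then exposed to compound (final 1:200 dilution, 0.5% DMSO) for two hours at 37 °C.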

| Compound | Met Kinase % Inhibition (MET) | Fik Kinase %Inhibition (FLK-1 receptor) |
| --- | --- | --- |
| O=C1Nc2c(Br)cc(Br)cc2C1=Cc1ccccc1Sc1ccc(Cl)cc1 [10727/A05] | 29.0% | 4.2% |
| O=C1Nc2c(Br)cc(Br)cc2C1=Cc1cc2c(cc1Cl)OCO2 [10727/A06] | 32.7% | -17.1% |
| O=C1Nc2c(Br)cc(Br)cc2C1=Cc1coc2ccccc2c1=O [10727/A07] | 61.1% | -10.7% |
| N#Cc1cccc(C=C2C(=O)Nc3c(Br)cc(Br)cc32)c1 [10727/A08] | 9.7% | -0.6% |
| N#Cc1ccc(C=C2C(=O)Nc3c(Br)cc(Br)cc32)cc1 [10727/A09] | 44.2% | -16.8% |
| O=C1Nc2c(Br)cc(Br)cc2C1=Cc1cc(O)ccc1O [10727/A10] | 95.2% | -6.4% |
| COc1cccc(C=C2C(=O)Nc3c(Br)cc(Br)cc32)c1OC [10727/A11] | 16.5% | 7.4% |
| CCN(CC)c1ccc(C=C2C(=O)Nc3ccc(I)cc32)cc1 [10727/B02] | 90.5% | 2.4% |
| CCc1cc(CC)c(C=C2C(=O)Nc3ccc(I)cc32)[nH]1 [10727/B03] | 84.5% | -13.4% |
| O=C1Nc2ccc(I)cc2C1=Cc1cc(Cl)cc(Br)c1O [10727/B04] | 87.1% | 46.0% |
| O=C1Nc2ccc(I)cc2C1=Cc1ccccc1Sc1ccc(Cl)cc1 [10727/B05] | 83.3% | 10.5% |
| O=C1Nc2ccc(I)cc2C1=Cc1cc2c(cc1Cl)OCO2 [10727/B06] | 91.0% | -3.9% |
| O=C1Nc2ccc(I)cc2C1=Cc1coc2ccccc2c1=O [10727/B07] | 83.5% | 8.4% |
| N#Cc1cccc(C=C2C(=O)Nc3ccc(I)cc32)c1 [10727/B08] | 90.7% | 4.0% |
| N#Cc1ccc(C=C2C(=O)Nc3ccc(I)cc32)cc1 [10727/B09] | 81.9% | 6.7% |
| O=C1Nc2ccc(I)cc2C1=Cc1cc(O)ccc1O [10727/B10] | 99.2% | 3.9% |
| COc1cccc(C=C2C(=O)Nc3ccc(I)cc32)c1OC [10727/B11] | 69.8% | 16.8% |
| CCN(CC)c1ccc(C=C2C(=O)Nc3ccc(Br)c(C)c32)cc1 [10727/C02] | 73.8% | -2.0% |
| CCc1cc(CC)c(C=C2C(=O)Nc3ccc(Br)c(C)c32)[nH]1 [10727/C03] | 11.9% | -3.2% |
| Cc1c(Br)ccc2c1C(=Cc1cc(Cl)cc(Br)c1O)C(=O)N2 [10727/C04] | 81.7% | 0.2% |
| Cc1c(Br)ccc2c1C(=Cc1ccccc1Sc1ccc(Cl)cc1)C(=O)N2 [10727/C05] | 8.9% | 13.7% |
| Cc1c(Br)ccc2c1C(=Cc1cc3c(cc1Cl)OCO3)C(=O)N2 [10727/C06] | 45.2% | 5.2% |
| Cc1c(Br)ccc2c1C(=Cc1coc3ccccc3c1=O)C(=O)N2 [10727/C07] | 36.7% | 15.9% |
| Cc1c(Br)ccc2c1C(=Cc1cccc(C#N)c1)C(=O)N2 [10727/C08] | 47.8% | 4.9% |
| Cc1c(Br)ccc2c1C(=Cc1ccc(C#N)cc1)C(=O)N2 [10727/C09] | 37.9% | -13.5% |
| Cc1c(Br)ccc2c1C(=Cc1cc(O)ccc1O)C(=O)N2 [10727/C10] | 94.4% | -35.3% |
| COc1cccc(C=C2C(=O)Nc3ccc(Br)c(C)c32)c1OC [10727/C11] | 14.5% | -25.6% |
| CCN(CC)c1ccc(C=C2C(=O)Nc3ccc(S(=O)(=O)NC)cc32)cc1 [10727/D02] | 51.6% | 3.2% |
| CCc1cc(CC)c(C=C2C(=O)Nc3ccc(S(=O)(=O)NC)cc32)[nH]1 [10727/D03] | 24.0% | 3.1% |
